Experimental data: the kinase profiling compilation of Christmann-Franck et al. (2016)

These molecules were tested against ADCK4 (human) (UniProt Q96D53) (assay: KINOMEscan competition binding). Conditions: compound 10.0 µM.

| Compound | kinase still bound, per cent of control |
| --- | --- |
| COc1cc(N2CCC(N3CCN(C)CC3)CC2)ccc1Nc1ncc(Cl)c(Nc2ccccc2S(=O)(=O)C(C)C)n1 | 0% |
| CCOc1cc(N2CCC(N3CCCCC3)CC2)ccc1Nc1nc(Nc2ccccc2S(=O)(=O)C(C)C)c2cn[nH]c2n1 | 29% |

These molecules were tested against ZAP70 (human) (UniProt P43403) (assay: KINOMEscan competition binding). Conditions: compound 10.0 µM.
Sequence of ZAP70 (human) (P43403 whole entry, looked up): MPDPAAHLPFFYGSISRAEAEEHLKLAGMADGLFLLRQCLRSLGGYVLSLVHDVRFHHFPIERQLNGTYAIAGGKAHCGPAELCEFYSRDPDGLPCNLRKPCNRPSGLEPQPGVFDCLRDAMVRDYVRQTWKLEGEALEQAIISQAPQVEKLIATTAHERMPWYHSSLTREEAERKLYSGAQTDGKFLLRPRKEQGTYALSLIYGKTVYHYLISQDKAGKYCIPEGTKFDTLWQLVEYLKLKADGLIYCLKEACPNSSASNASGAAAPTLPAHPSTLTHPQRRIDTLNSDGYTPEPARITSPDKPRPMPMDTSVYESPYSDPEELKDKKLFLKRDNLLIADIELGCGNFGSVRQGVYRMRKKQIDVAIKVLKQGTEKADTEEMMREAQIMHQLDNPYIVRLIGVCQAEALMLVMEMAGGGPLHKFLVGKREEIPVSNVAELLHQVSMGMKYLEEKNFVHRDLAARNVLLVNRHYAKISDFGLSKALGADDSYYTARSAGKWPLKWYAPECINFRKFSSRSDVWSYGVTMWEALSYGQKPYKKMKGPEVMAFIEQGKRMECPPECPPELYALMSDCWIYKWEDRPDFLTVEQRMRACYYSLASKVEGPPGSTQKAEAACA

| Compound | kinase still bound, per cent of control |
| --- | --- |
| CCN1CCN(Cc2ccc(NC(=O)c3ccc(C)c(/C=C/c4cnc(Nc5cc(N6CCNCC6)nc(C)n5)cn4)c3)cc2C(F)(F)F)CC1 | 15% |
| COc1cc(N2CCC(N3CCN(C)CC3)CC2)ccc1Nc1ncc(Cl)c(Nc2ccccc2S(=O)(=O)C(C)C)n1 | 10% |
| CCOc1cc(N2CCC(N3CCCCC3)CC2)ccc1Nc1nc(Nc2ccccc2S(=O)(=O)C(C)C)c2cn[nH]c2n1 | 32% |

Each molecule was assayed against MAPK11 (human) (UniProt Q15759) (assay: KINOMEscan competition binding). Conditions: compound 10.0 µM.
Sequence of MAPK11 (human) (Q15759 whole entry, looked up): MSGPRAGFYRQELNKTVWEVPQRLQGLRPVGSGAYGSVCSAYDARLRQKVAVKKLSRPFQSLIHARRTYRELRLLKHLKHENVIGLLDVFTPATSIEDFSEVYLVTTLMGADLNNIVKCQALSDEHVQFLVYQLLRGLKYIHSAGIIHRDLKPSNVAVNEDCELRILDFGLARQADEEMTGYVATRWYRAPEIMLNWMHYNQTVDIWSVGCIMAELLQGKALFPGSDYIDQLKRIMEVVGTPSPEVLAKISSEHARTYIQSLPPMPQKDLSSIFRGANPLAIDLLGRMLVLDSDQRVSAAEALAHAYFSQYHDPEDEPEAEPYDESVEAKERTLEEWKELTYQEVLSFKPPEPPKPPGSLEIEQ

| Compound | kinase still bound, per cent of control |
| --- | --- |
| CCN1CCN(Cc2ccc(NC(=O)c3ccc(C)c(/C=C/c4cnc(Nc5cc(N6CCNCC6)nc(C)n5)cn4)c3)cc2C(F)(F)F)CC1 | 3.2% |
| COc1cc(N2CCC(N3CCN(C)CC3)CC2)ccc1Nc1ncc(Cl)c(Nc2ccccc2S(=O)(=O)C(C)C)n1 | 40% |
| CCOc1cc(N2CCC(N3CCCCC3)CC2)ccc1Nc1nc(Nc2ccccc2S(=O)(=O)C(C)C)c2cn[nH]c2n1 | 100% |
| CCN1CCN(Cc2ccc(NC(=O)c3ccc(C)c(Oc4ccnc5[nH]ccc45)c3)cc2C(F)(F)F)CC1 | 0% |

These molecules were tested against MAPKAPK2 (human) (UniProt P49137) (assay: KINOMEscan competition binding). Conditions: compound 10.0 µM.
Sequence of MAPKAPK2 (human) (P49137 whole entry, looked up): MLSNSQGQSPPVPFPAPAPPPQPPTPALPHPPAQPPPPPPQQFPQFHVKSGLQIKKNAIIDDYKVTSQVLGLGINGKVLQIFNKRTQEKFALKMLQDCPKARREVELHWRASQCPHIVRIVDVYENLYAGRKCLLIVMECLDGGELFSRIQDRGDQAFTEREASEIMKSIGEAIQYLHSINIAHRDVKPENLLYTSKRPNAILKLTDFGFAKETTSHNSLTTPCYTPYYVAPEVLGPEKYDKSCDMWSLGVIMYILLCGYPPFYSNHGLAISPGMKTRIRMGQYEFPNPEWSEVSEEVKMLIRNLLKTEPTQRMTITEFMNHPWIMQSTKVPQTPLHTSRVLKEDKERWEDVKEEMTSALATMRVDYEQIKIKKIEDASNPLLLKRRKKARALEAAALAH

| Compound | kinase still bound, per cent of control |
| --- | --- |
| CCN1CCN(Cc2ccc(NC(=O)c3ccc(C)c(/C=C/c4cnc(Nc5cc(N6CCNCC6)nc(C)n5)cn4)c3)cc2C(F)(F)F)CC1 | 100% |
| COc1cc(N2CCC(N3CCN(C)CC3)CC2)ccc1Nc1ncc(Cl)c(Nc2ccccc2S(=O)(=O)C(C)C)n1 | 40% |
| CCOc1cc(N2CCC(N3CCCCC3)CC2)ccc1Nc1nc(Nc2ccccc2S(=O)(=O)C(C)C)c2cn[nH]c2n1 | 100% |

The molecules below were run against PLK4 (human) (UniProt O00444) (assay: KINOMEscan competition binding). Conditions: compound 10.0 µM.

| Compound | kinase still bound, per cent of control |
| --- | --- |
| CCN1CCN(Cc2ccc(NC(=O)c3ccc(C)c(/C=C/c4cnc(Nc5cc(N6CCNCC6)nc(C)n5)cn4)c3)cc2C(F)(F)F)CC1 | 92% |
| COc1cc(N2CCC(N3CCN(C)CC3)CC2)ccc1Nc1ncc(Cl)c(Nc2ccccc2S(=O)(=O)C(C)C)n1 | 0% |
| CCOc1cc(N2CCC(N3CCCCC3)CC2)ccc1Nc1nc(Nc2ccccc2S(=O)(=O)C(C)C)c2cn[nH]c2n1 | 74% |

Each molecule was assayed against RPS6KA6 KD1 (human) (UniProt Q9UK32) (assay: KINOMEscan competition binding). Conditions: compound 10.0 µM.
Sequence of RPS6KA6 KD1 (human) (Q9UK32 whole entry, looked up): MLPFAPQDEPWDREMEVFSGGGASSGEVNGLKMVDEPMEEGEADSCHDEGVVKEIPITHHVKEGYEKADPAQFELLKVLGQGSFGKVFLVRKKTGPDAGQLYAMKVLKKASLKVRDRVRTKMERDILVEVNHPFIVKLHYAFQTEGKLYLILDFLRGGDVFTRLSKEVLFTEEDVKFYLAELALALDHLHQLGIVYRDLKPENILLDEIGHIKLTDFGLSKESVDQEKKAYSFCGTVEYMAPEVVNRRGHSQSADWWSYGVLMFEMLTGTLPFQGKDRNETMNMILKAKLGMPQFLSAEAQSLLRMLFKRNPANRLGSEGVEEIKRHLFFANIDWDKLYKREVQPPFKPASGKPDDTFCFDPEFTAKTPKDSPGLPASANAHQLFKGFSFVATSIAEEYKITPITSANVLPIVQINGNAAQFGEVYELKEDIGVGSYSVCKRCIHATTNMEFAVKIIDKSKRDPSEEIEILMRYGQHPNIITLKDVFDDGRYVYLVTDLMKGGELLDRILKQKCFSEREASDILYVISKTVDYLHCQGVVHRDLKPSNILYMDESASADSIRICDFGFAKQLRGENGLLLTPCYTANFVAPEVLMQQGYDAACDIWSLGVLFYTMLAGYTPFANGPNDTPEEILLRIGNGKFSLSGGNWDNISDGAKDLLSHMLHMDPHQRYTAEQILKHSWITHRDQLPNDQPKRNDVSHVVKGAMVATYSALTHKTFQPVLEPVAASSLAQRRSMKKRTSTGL

| Compound | kinase still bound, per cent of control |
| --- | --- |
| CCN1CCN(Cc2ccc(NC(=O)c3ccc(C)c(/C=C/c4cnc(Nc5cc(N6CCNCC6)nc(C)n5)cn4)c3)cc2C(F)(F)F)CC1 | 100% |
| COc1cc(N2CCC(N3CCN(C)CC3)CC2)ccc1Nc1ncc(Cl)c(Nc2ccccc2S(=O)(=O)C(C)C)n1 | 1.1% |
| CCOc1cc(N2CCC(N3CCCCC3)CC2)ccc1Nc1nc(Nc2ccccc2S(=O)(=O)C(C)C)c2cn[nH]c2n1 | 23% |

These molecules were tested against MAPK9 (human) (UniProt P45984) (assay: KINOMEscan competition binding). Conditions: compound 10.0 µM.
Sequence of MAPK9 (human) (P45984 whole entry, looked up): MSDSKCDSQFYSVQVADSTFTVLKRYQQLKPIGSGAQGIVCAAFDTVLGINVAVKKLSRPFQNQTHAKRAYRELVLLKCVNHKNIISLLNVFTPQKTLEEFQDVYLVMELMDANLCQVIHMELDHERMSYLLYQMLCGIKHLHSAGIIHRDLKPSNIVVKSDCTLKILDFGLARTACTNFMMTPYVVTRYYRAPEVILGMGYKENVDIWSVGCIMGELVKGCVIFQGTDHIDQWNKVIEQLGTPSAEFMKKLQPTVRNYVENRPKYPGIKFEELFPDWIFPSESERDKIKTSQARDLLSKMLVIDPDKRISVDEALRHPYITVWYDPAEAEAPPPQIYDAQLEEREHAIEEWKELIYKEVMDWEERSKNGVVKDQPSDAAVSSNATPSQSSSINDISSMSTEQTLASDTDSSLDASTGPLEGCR

| Compound | kinase still bound, per cent of control |
| --- | --- |
| CCN1CCN(Cc2ccc(NC(=O)c3ccc(C)c(/C=C/c4cnc(Nc5cc(N6CCNCC6)nc(C)n5)cn4)c3)cc2C(F)(F)F)CC1 | 0.7% |
| COc1cc(N2CCC(N3CCN(C)CC3)CC2)ccc1Nc1ncc(Cl)c(Nc2ccccc2S(=O)(=O)C(C)C)n1 | 12% |
| CCOc1cc(N2CCC(N3CCCCC3)CC2)ccc1Nc1nc(Nc2ccccc2S(=O)(=O)C(C)C)c2cn[nH]c2n1 | 22% |
| CCN1CCN(Cc2ccc(NC(=O)c3ccc(C)c(Oc4ccnc5[nH]ccc45)c3)cc2C(F)(F)F)CC1 | 0% |

These molecules were tested against MAP2K6 (human) (UniProt P52564) (assay: KINOMEscan competition binding). Conditions: compound 10.0 µM.
Sequence of MAP2K6 (human) (P52564 whole entry, looked up): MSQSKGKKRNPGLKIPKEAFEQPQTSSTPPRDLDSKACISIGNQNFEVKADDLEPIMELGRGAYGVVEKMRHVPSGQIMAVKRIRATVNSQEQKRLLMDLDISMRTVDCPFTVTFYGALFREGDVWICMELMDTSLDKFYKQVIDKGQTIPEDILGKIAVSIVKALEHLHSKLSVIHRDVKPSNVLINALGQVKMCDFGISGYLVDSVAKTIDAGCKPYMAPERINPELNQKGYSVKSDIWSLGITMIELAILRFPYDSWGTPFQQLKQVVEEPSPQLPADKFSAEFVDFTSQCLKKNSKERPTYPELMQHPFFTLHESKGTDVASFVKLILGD

| Compound | kinase still bound, per cent of control |
| --- | --- |
| CCN1CCN(Cc2ccc(NC(=O)c3ccc(C)c(/C=C/c4cnc(Nc5cc(N6CCNCC6)nc(C)n5)cn4)c3)cc2C(F)(F)F)CC1 | 100% |
| COc1cc(N2CCC(N3CCN(C)CC3)CC2)ccc1Nc1ncc(Cl)c(Nc2ccccc2S(=O)(=O)C(C)C)n1 | 40% |
| CCOc1cc(N2CCC(N3CCCCC3)CC2)ccc1Nc1nc(Nc2ccccc2S(=O)(=O)C(C)C)c2cn[nH]c2n1 | 100% |

Each molecule was assayed on EGFR (human), P00533 [747-751 del / S ins] (assay: KINOMEscan competition binding). Conditions: compound 10.0 µM.
Sequence of EGFR (human), P00533 [747-751 del / S ins] (P00533 whole entry, looked up, stated change not applied): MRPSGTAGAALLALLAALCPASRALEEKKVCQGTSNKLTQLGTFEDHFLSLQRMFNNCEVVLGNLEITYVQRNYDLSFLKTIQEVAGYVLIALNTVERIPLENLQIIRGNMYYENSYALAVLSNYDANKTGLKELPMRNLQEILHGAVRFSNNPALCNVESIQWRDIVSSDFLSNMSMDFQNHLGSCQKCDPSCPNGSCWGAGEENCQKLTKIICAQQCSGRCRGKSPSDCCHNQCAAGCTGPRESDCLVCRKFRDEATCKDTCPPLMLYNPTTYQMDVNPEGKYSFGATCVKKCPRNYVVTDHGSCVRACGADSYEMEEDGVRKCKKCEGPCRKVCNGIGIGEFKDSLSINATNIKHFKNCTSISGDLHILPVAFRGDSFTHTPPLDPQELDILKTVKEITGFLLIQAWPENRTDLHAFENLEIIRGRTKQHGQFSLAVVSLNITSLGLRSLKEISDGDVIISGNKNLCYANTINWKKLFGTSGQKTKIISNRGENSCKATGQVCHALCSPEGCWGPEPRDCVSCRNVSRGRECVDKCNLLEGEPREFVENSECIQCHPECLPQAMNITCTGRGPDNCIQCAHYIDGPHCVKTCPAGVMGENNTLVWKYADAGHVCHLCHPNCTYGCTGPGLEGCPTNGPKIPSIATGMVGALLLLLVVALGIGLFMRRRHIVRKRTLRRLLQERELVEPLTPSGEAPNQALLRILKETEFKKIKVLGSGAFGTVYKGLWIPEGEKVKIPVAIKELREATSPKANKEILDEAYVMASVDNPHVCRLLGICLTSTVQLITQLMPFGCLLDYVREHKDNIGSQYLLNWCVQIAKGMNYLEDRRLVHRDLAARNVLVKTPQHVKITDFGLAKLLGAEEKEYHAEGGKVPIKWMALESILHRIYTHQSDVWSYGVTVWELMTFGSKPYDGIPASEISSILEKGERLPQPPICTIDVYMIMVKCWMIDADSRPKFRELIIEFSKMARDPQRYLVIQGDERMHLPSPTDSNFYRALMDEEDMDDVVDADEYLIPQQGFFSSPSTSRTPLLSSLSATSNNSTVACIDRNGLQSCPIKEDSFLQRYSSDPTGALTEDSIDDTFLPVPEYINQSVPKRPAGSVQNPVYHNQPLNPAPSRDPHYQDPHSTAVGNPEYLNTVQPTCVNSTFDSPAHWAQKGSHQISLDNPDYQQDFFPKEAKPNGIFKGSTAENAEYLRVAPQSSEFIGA

| Compound | kinase still bound, per cent of control |
| --- | --- |
| CCN1CCN(Cc2ccc(NC(=O)c3ccc(C)c(/C=C/c4cnc(Nc5cc(N6CCNCC6)nc(C)n5)cn4)c3)cc2C(F)(F)F)CC1 | 4.6% |
| COc1cc(N2CCC(N3CCN(C)CC3)CC2)ccc1Nc1ncc(Cl)c(Nc2ccccc2S(=O)(=O)C(C)C)n1 | 0.6% |
| CCOc1cc(N2CCC(N3CCCCC3)CC2)ccc1Nc1nc(Nc2ccccc2S(=O)(=O)C(C)C)c2cn[nH]c2n1 | 19% |
| CCN1CCN(Cc2ccc(NC(=O)c3ccc(C)c(Oc4ccnc5[nH]ccc45)c3)cc2C(F)(F)F)CC1 | 1.1% |

These molecules were tested on FGFR3 (human), P22607 [G697C] (assay: KINOMEscan competition binding). Conditions: compound 10.0 µM.

| Compound | kinase still bound, per cent of control |
| --- | --- |
| CCN1CCN(Cc2ccc(NC(=O)c3ccc(C)c(/C=C/c4cnc(Nc5cc(N6CCNCC6)nc(C)n5)cn4)c3)cc2C(F)(F)F)CC1 | 23% |
| COc1cc(N2CCC(N3CCN(C)CC3)CC2)ccc1Nc1ncc(Cl)c(Nc2ccccc2S(=O)(=O)C(C)C)n1 | 0.25% |
| CCOc1cc(N2CCC(N3CCCCC3)CC2)ccc1Nc1nc(Nc2ccccc2S(=O)(=O)C(C)C)c2cn[nH]c2n1 | 97% |
| CCN1CCN(Cc2ccc(NC(=O)c3ccc(C)c(Oc4ccnc5[nH]ccc45)c3)cc2C(F)(F)F)CC1 | 16% |

Each molecule was assayed against SIK1 (human) (UniProt P57059) (assay: KINOMEscan competition binding). Conditions: compound 10.0 µM.
Sequence of SIK1 (human) (P57059 whole entry, looked up): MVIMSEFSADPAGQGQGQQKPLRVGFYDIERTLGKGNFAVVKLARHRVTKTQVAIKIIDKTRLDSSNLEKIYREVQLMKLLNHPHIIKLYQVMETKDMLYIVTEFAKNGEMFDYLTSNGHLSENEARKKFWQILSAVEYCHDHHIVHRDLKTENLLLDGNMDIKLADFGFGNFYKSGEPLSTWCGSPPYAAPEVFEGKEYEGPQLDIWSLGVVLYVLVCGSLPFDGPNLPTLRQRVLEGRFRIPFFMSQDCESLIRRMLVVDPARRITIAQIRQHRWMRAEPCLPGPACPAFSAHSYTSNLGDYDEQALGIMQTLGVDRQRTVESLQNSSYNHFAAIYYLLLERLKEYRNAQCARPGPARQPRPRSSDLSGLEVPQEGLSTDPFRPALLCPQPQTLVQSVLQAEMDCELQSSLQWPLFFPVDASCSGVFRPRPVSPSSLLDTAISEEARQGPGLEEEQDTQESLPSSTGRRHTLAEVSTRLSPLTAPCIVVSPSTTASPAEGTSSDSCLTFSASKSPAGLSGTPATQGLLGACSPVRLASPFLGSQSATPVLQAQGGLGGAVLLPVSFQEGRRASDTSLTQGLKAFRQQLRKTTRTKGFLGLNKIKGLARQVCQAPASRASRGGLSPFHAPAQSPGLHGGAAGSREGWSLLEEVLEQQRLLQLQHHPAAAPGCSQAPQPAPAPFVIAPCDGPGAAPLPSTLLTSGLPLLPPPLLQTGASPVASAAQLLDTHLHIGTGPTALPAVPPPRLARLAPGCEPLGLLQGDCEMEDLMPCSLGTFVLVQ

| Compound | kinase still bound, per cent of control |
| --- | --- |
| CCN1CCN(Cc2ccc(NC(=O)c3ccc(C)c(/C=C/c4cnc(Nc5cc(N6CCNCC6)nc(C)n5)cn4)c3)cc2C(F)(F)F)CC1 | 3.6% |
| CCOc1cc(N2CCC(N3CCCCC3)CC2)ccc1Nc1nc(Nc2ccccc2S(=O)(=O)C(C)C)c2cn[nH]c2n1 | 100% |
| CCN1CCN(Cc2ccc(NC(=O)c3ccc(C)c(Oc4ccnc5[nH]ccc45)c3)cc2C(F)(F)F)CC1 | 5.3% |
